Measured values published in ChEMBL document CHEMBL1201862, “PubChem BioAssay data set” (2004).
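Cultured in 96-well plates, cells were exposed to test compound for 48 hours across five concentrations. Here, GI50 denotes the concentration required for 50% inhibition of growth.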 Activity calls are given as the source filed them. Cut-off read from the data, not from the text of the source: active = GI50 up to about 1.1 µM and inactive = higher.

Key:
Assay in all cases: growth of human tumour cells (NCI), 48 h
SN12C = system: SN12C
SR = system: SR
RPMI-8226 = system: RPMI-8226
MOLT-4 = system: MOLT-4
EKVX = system: EKVX
IGROV-1 = system: IGROV-1
HCC 2998 = system: HCC 2998
DU-145 = system: DU-145
UO-31 = system: UO-31
NCI-H23 = system: NCI-H23
LOX IMVI = system: LOX IMVI
HT-29 = system: HT-29
MDA-MB-435 = system: MDA-MB-435
SF-268 = system: SF-268
ACHN = system: ACHN
HL-60 = system: HL-60
OVCAR-4 = system: OVCAR-4
COLO 205 = system: COLO 205
OVCAR-8 = system: OVCAR-8
OVCAR-3 = system: OVCAR-3
SW-620 = system: SW-620
CAKI-1 = system: CAKI-1
OVCAR-5 = system: OVCAR-5
A549 = system: A549
MCF7 = system: MCF7
HOP-62 = system: HOP-62
SK-MEL-28 = system: SK-MEL-28
SF-539 = system: SF-539
MDA-N = system: MDA-N
HOP-92 = system: HOP-92
SNB-75 = system: SNB-75
BT-549 = system: BT-549
HCT-15 = system: HCT-15
NCI-H522 = system: NCI-H522
Hs-578T = system: Hs-578T
UACC-62 = system: UACC-62
NCI-H460 = system: NCI-H460
NCI/ADR-RES = system: NCI/ADR-RES
SK-OV-3 = system: SK-OV-3
PC-3 = system: PC-3
UACC-257 = system: UACC-257
U-251 = system: U-251
TK-10 = system: TK-10
HCT-116 = system: HCT-116
T47D = system: T47D
SF-295 = system: SF-295
KM12 = system: KM12
CCRF-CEM = system: CCRF-CEM
M14 = system: M14
MDA-MB-231 = system: MDA-MB-231
SK-MEL-5 = system: SK-MEL-5
SNB-19 = system: SNB-19
Malme-3M = system: Malme-3M
SK-MEL-2 = system: SK-MEL-2
K562 = system: K562
786-0 = system: 786-0

## CCN(CC)CCCC(C)Nc1ccnc(/C=C/c2ccc(Cl)cc2)c1 (configuration not stated)
SN12C
  GI50: 2.07 µM (inactive)
SR
  GI50: 2.3 µM (inactive)
RPMI-8226
  GI50: 1.72 µM (inactive)
MOLT-4
  GI50: 1.22 µM (inactive)
EKVX
  GI50: 4.2 µM (inactive)
IGROV-1
  GI50: 2.17 µM (inactive)
HCC 2998
  GI50: 1.95 µM (inactive)
DU-145
  GI50: 9.08 µM (inactive)
UO-31
  GI50: 1.52 µM (inactive)
NCI-H23
  GI50: 10.1 µM (inactive)
LOX IMVI
  GI50: 1.26 µM (inactive)
HT-29
  GI50: 3.49 µM (inactive)
MDA-MB-435
  GI50: 1.56 µM (inactive)
SF-268
  GI50: 3.06 µM (inactive)
ACHN
  GI50: 3.32 µM (inactive)
HL-60
  GI50: 2.07 µM (inactive)
OVCAR-4
  GI50: 3.51 µM (inactive)
COLO 205
  GI50: 1.35 µM (inactive)
OVCAR-8
  GI50: 3.43 µM (inactive)
OVCAR-3
  GI50: 1.63 µM (inactive)
SW-620
  GI50: 1.54 µM (inactive)
CAKI-1
  GI50: 2.29 µM (inactive)
OVCAR-5
  GI50: 2.61 µM (inactive)
A549
  GI50: 1.91 µM (inactive)
MCF7
  GI50: 2.55 µM (inactive)
HOP-62
  GI50: 1.84 µM (inactive)
SK-MEL-28
  GI50: 1.7 µM (inactive)
SF-539
  GI50: 1.67 µM (inactive)
MDA-N
  GI50: 1.83 µM (inactive)
HOP-92
  GI50: 1.26 µM (inactive)
SNB-75
  GI50: 1.77 µM (inactive)
BT-549
  GI50: 2.19 µM (inactive)
HCT-15
  GI50: 1.82 µM
NCI-H522
  GI50: 1.63 µM (inactive)
Hs-578T
  GI50: 2.26 µM (inactive)
UACC-62
  GI50: 1.94 µM (inactive)
NCI-H460
  GI50: 2.69 µM (inactive)
NCI/ADR-RES
  GI50: 3.12 µM (inactive)
SK-OV-3
  GI50: 3.61 µM (inactive)
PC-3
  GI50: 1.56 µM (inactive)
UACC-257
  GI50: 2.02 µM (inactive)
U-251
  GI50: 1.66 µM (inactive)
TK-10
  GI50: 2.38 µM (inactive)
HCT-116
  GI50: 1.72 µM (inactive)
T47D
  GI50: 1.93 µM (inactive)
SF-295
  GI50: 3.02 µM (inactive)
KM12
  GI50: 2.02 µM (inactive)
CCRF-CEM
  GI50: 1.2 µM (inactive)
M14
  GI50: 1.11 µM (active)
MDA-MB-231
  GI50: 0.497 µM (active)
SK-MEL-5
  GI50: 3.23 µM (inactive)
SNB-19
  GI50: 3.4 µM (inactive)
Malme-3M
  GI50: 1.21 µM (inactive)
SK-MEL-2
  GI50: 2.11 µM (inactive)
K562
  GI50: 0.135 µM (active)
786-0
  GI50: 1.41 µM (inactive)

## O=CNc1ccc(S(=O)(=O)c2ccc(NC=O)cc2)cc1
SN12C
  GI50: > 100 µM (inactive)
SR
  GI50: > 100 µM (inactive)
RPMI-8226
  GI50: > 100 µM (inactive)
MOLT-4
  GI50: > 100 µM (inactive)
EKVX
  GI50: > 100 µM (inactive)
IGROV-1
  GI50: > 100 µM (inactive)
HCC 2998
  GI50: > 100 µM (inactive)
DU-145
  GI50: > 100 µM (inactive)
UO-31
  GI50: > 100 µM (inactive)
NCI-H23
  GI50: > 100 µM (inactive)
LOX IMVI
  GI50: > 100 µM (inactive)
HT-29
  GI50: > 100 µM (inactive)
MDA-MB-435
  GI50: > 100 µM (inactive)
SF-268
  GI50: > 100 µM (inactive)
ACHN
  GI50: > 100 µM (inactive)
HL-60
  GI50: > 100 µM (inactive)
OVCAR-4
  GI50: > 100 µM (inactive)
COLO 205
  GI50: > 100 µM (inactive)
OVCAR-8
  GI50: > 100 µM (inactive)
OVCAR-3
  GI50: > 100 µM (inactive)
SW-620
  GI50: > 100 µM (inactive)
CAKI-1
  GI50: > 100 µM (inactive)
OVCAR-5
  GI50: > 100 µM (inactive)
A549
  GI50: > 100 µM (inactive)
MCF7
  GI50: > 100 µM (inactive)
HOP-62
  GI50: > 100 µM (inactive)
SK-MEL-28
  GI50: > 100 µM (inactive)
SF-539
  GI50: > 100 µM (inactive)
MDA-N
  GI50: > 100 µM (inactive)
HOP-92
  GI50: > 100 µM (inactive)
SNB-75
  GI50: 29.7 µM (inactive)
BT-549
  GI50: > 100 µM (inactive)
HCT-15
  GI50: > 100 µM
NCI-H522
  GI50: > 100 µM (inactive)
Hs-578T
  GI50: > 100 µM (inactive)
UACC-62
  GI50: > 100 µM (inactive)
NCI-H460
  GI50: > 100 µM (inactive)
NCI/ADR-RES
  GI50: > 100 µM (inactive)
SK-OV-3
  GI50: > 100 µM (inactive)
PC-3
  GI50: > 100 µM (inactive)
UACC-257
  GI50: > 100 µM (inactive)
U-251
  GI50: > 100 µM (inactive)
TK-10
  GI50: > 100 µM (inactive)
HCT-116
  GI50: > 100 µM (inactive)
T47D
  GI50: > 100 µM (inactive)
SF-295
  GI50: > 100 µM (inactive)
KM12
  GI50: > 100 µM (inactive)
CCRF-CEM
  GI50: > 100 µM (inactive)
M14
  GI50: > 100 µM (inactive)
MDA-MB-231
  GI50: > 100 µM (inactive)
SK-MEL-5
  GI50: > 100 µM (inactive)
SNB-19
  GI50: > 100 µM (inactive)
Malme-3M
  GI50: > 100 µM (inactive)
SK-MEL-2
  GI50: > 100 µM (inactive)
K562
  GI50: > 100 µM (inactive)
786-0
  GI50: > 100 µM (inactive)
